The subject of the experiment is primary mouse OPCs. Put plainly: differentiation assay, immunocytochemical staining for O4 and MBP. It is filed as cell-based. The conditions noted are these: for MBP expression / O4 expression: normalized to DAPI and negative control. The method, then: The effects of ponesimod, a selective S1P1 receptor agonist, and A971432, a selective S1P5 receptor agonist, on oligodendrocyte precursor cell (OPC) migration and differentiation were evaluated. Nine concentrations were tested (logarithmic dilutions ranging from 0.3 nM to 3000 nM, n=6 per concentration). Fingolimod phosphate (P-FTY720, 3000 nM, n=6) was included as a positive control, 0.1% DMSO was included (min.one/plate) as a negative control. Primary mouse OPCs were harvested on postnatal day 0 or 1 and mixed glia cultures were maintained for 14 days. Primary OPCs were then purified using the shake-off method, and used for either a migration assay, or a differentiation assay, as detailed below. To harvest primary mouse OPCs, cortices are isolated from mouse pups on postnatal day 0 or 1 and placed in ice-cold Dulbecco's Modified Eagle Medium (DMEM) (Sigma Aldrich, Overijse, BE). The cortices are homogenized and centrifuged for 5 minutes at 300 G. The supernatant is removed, and a papain solution is added for 30 minutes (125 uL DMEM solution per brain containing 20 units/ml papain and 40 μg/ml DNase, at 37 degrees). Digestion is inactivated by adding 9 ml cold DMEM. The solution is then centrifuged for 5 minutes at […]. The supernatant is carefully removed, and the pellet is resuspended in 2-5 ml culture medium (DMEM with 10% fetal calf serum (Biowest, Nuaillé, FR) and 1% pen/strep (Sigma Aldrich, Overijse, BE)). […] Cell suspension is divided over PLL (Sigma Aldrich, Overijse, BE)-coated flasks (2 brains per flask) and DMEM is added to a final volume of 10 ml. DMEM is replaced on day 4, 7, and 11. On day 7 and 11, insulin (Sigma Aldrich, Overijse, BE) is added to the medium (5μg/ml). On day 14, OPCs are separated from astrocytes by the shake-off method: flasks are placed on a shaker for 45 minutes at 75 rpm (37 degrees). The medium is then aspirated and discarded, and 10 ml fresh culture medium is added. Flasks are then returned to the shaker for 16-18 hours shaking at 280 rpm. Next, the medium is isolated, and this cell suspension is placed in a plastic petri dish and incubated for 25 minutes. The medium, which contains the OPCs, is then collected and centrifuged for 5 minutes at 300 G. Cells are then resuspended in SATO differentiation medium containing 2% horse serum, 2% B-27, 50 U/ml P/S, 2.4 μl/ml transferrin, 1.04 μl/ml L-thyroxine, 1 μl/ml putrescin, 1 μl/ml progesterone, 1 μl/ml TIT, 0.74 μl/ml sodium selenite and 0.5 μl/ml insulin (all from Sigma-Aldrich, Overijse, BE). […] After shake-off, cells are reset for their differentiation status: one hour after plating, cells are treated with platelet-derived growth factor (PDGF, 10 ng/ml, Peprotech EC Ltd, London, UK) and fibroblast growth factor (fgf, 10 ng/ml, Peprotech EC Ltd, London, UK). Twenty-four hours after plating, cells are treated again with fgf (10 ng/ml). 150,000 cells are plated onto glass coverslips in 24-well plates. […] Aspecific binding was blocked for 30 minutes with 1% bovine serum albumin (BSA) in 0.1% PBS-T, followed by incubation with primary antibodies (O4:R&D systems, Minneapolis, USA, MBP:Merck, Overijse, BE) for four hours at room temperature. After three washing steps with PBS (Lonza group, Bornem, BE), cells are incubated with Invitrogen Alexa Fluor 488 (Alexa 488) or Invitrogen Alexa Fluor 555 (Alexa 555) conjugated secondary antibody for one hour (Life technologies, Carlsbad, USA). […] Sigma-Aldrich, Overijse, […]). Coverslips are mounted with Dako mounting medium (Dako, Carpinteria, USA) and analyzed using a fluorescence microscope (Leica DM2000 LED). Images are quantified using Fiji, ImageJ software. Ponesimod and […] effect on primary mouse OPC differentiation using immunocytochemical staining for O4 and MBP, markers of early and late differentiation stages, respectively, was measured. Fingolimod phosphate, which served as a positive control in the migration assay, was included as well, 0.1% DMSO was included as a negative control. […]

In the case of `O=C(O)C1CN(Cc2ccc(OCc3ccc(Cl)c(Cl)c3)cc2)C1` [A97], the MBP expression result (1000 nM) was “significant increase”. Further, the O4 expression entry is, setting by setting: (1000 nM) “marginally increased”; (3000 nM) “marginally increased”. Further, the “OPC differentiation (staining for O4 and MBP)” value (high concentration 1000 nM) is reported as “modest increases”.
Consider `CCC/N=C1\S/C(=C\c2ccc(OC[C@H](O)CO)c(Cl)c2)C(=O)N1c1ccccc1C` [ponesimod, (R)-5-[3-chloro-4-(2,3-dihydroxy-propoxy)-benz[Z]ylidene]-2-([Z]-propylimino)-3-o-tolyl-thiazolidin-4-one], for which the MBP expression entry is, setting by setting: (300 nM) “significant increase”; (1000 nM) “did not show significantly increased MBP expression”. In addition, the O4 expression entry is reported as “did not show significantly increased O4 expression” (300 nM) and “marginally increased” (1000 nM). Besides, the “OPC differentiation (staining for O4 and MBP)” value (high concentrations 300 nM-1000 nM) was “Enhanced OPC differentiation”.
